# Legend:
# [1] = target: T1, bovine mitochondria (ANT) (Bos taurus, UniProt P02722); assay: 125I-compound 24 competition binding (Tube Assay), beef heart mitochondria; conditions: for competitive inhibition of 125I-compound 24 binding (in words): FIGS. 11, 13, 16
# T1 construct: from tissue; host or cells: bovine heart mitochondria
# T1 sequence (P02722 2-298 limits assumed): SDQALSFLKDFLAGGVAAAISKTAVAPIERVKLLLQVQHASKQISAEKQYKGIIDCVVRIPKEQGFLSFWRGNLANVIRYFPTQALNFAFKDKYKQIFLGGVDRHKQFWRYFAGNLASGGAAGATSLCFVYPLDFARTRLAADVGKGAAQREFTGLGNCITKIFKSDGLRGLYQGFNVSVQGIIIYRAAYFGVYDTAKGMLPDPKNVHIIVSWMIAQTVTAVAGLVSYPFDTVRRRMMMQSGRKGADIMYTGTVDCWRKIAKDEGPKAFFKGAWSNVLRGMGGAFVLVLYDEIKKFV
# Protocol: Bovine mitochondria were prepared as follows: Essentially all of the fat and cholesterol […] was removed from two bovine hearts which were then cut into 1-inch cubes. The cubes were ground in a meat grinder using the fine setting. Three hundred (300) […] portions of the ground heart were weighed out and, to each was added 400 ml of Isolation Buffer (IB; 250 mM sucrose, 1 mM sodium succinate, 0.2 mM K^+EDTA, 10 mM Tris-base, pH 7.8). (All buffers were filter sterilized, and column buffers were degassed, and, unless otherwise noted, all steps were carried out at 0 to 4° C. on ice or in pre-cooled rotors and centrifuges.) The preparations were mixed in a blender two times for 15 seconds on high setting and, in between and after blends, the pH was adjusted to 7.8 with 2M Tris-base. The homogenate was centrifuged for 20 minutes at 1,200×g, and the supernatant was poured through two layers of cheese cloth and adjusted to pH 7.8 with 2M Tris-base. The supernatant was then centrifuged for 30 minutes at […]. The supernatant was decanted, and the buff-colored outer pellet was dislodged with about 10 ml of IB and discarded. The brown inner pellet (heavy mitochondria) was resuspended in IB (about 10 ml per pellet). The pellets were homogenized in a glass-teflon homogenizer (2 passes at high drill speed). Samples were combined and centrifuged for 30 minutes at 11,000×g. The supernatant was decanted, and the pellets were resuspended in 60 ml of IB per 900 gm of ground heart. This centrifugation step was repeated and the pellets were finally resuspended in IB (60 ml per 900 gm of ground heart). One kilogram of beef heart typically yields about one (1) gram of mitochondria
# (§1) The mitochondrial preparations were divided into aliquots (typically, 50μl for T. ni mitochondria or 20 μl for bovine mitochondria) and then either used directly in assays or flash frozen and stored at −80° C. The total protein content in the mitochondrial preparations was determined using the enhanced protocol (30 minutes at 60° C.; see http://www.ruf.rice.edu/˜bioslabs/methods/protein/BCA.html) of the bicinchoninic acid (BCA) assay (available in kit form from Pierce, Rockford, Ill.).
# In the “Tube Assay,” mitochondria (from about 1 to 10 μg of total protein) were resuspended in 100 μl of Tris-KCl buffer with 0.1% BSA, pH 7.4. ^125I-labeled compound 24 (Example 11) was added to a final concentration of 0.5 nM. When used, competitors were added at these concentration ranges: unlabeled atractyloside or compound 24 final concentration from 5 nM to 10 μM; unlabeled ADP (a lower affinity competitor) was added at a final concentration of 500 nM to 1 mM.
# The reaction mixes were incubated on ice for 60 minutes and then pelleted by centrifugation (approximately 16,000×g) for 11 minutes at 4° C.
# Unbound ^125I-compound 24 was removed by aspiration. The pellets were contact-washed with Tris-KCl buffer, pH 7.4, and recentrifuged. The resultant pellets were aspirated and the radioactivity (dpm) in each was determined by gamma counting.
# [2] = target: T2, T. ni/huANT3 mitochondria (Homo sapiens, UniProt P12236); assay: 125I-compound 24 competition binding (Tube Assay), mitochondria from T. ni cells expressing huANT3; conditions: mitochondria from T. ni cells expressing huANT3; FIGS. 12, 14, 15
# T2 construct: expressed in transfected cells; host or cells: Trichoplusia ni cells infected with recombinant baculovirus (cells prepared by PharMingen); isolated mitochondria
# T2 sequence (P12236 1-298): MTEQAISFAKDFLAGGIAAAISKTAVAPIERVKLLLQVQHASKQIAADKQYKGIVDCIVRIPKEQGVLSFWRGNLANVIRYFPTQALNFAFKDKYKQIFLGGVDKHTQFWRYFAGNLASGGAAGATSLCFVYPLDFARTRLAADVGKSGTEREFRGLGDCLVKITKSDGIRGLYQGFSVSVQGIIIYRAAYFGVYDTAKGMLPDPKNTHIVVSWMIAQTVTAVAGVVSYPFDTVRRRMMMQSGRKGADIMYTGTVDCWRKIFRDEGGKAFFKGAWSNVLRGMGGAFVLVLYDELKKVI
# Protocol: Atractyloside analogs (Example 6; Table 1; see also Examples 7-9) were also used in pseudo-homologous competition binding assays using T. ni/huANT3 mitochondria or bovine mitochondria. Mitochondria from noninfected T. ni cells, or T. ni cells infected with a baculovirus expressing huANT3 (see Example 3) were prepared as follows: […] cells were prepared by a subcontractor (PharMingen, San Diego, Calif.) as portions of about 250 mg of cells per tube. Each portion was suspended in 1 ml of MSB with protease inhibitors (leupeptin, final concentration 10 ug/ml; pepstatin, final concentration 10 ug/ml; aprotinin, final concentration, 2 ug/ml; phenylmethylsulfonyl fluoride, [PMSF], final concentration, 100 μM; all from Sigma Chemical Co., St. Louis, Mo.). The resuspended cell suspensions were frozen and thawed twice, then homogenized using a rotating teflon-coated probe and a close-fitting glass container (10 passes). The cellular homogenate was centrifuged (3,700 rpm, approximately 1,500×g) at 4° C. for 5 minutes; this supernatant from the first spin was saved. The pellet was washed with about 500 μl of MSB with protease inhibitors, centrifuged (3,800 rpm, approximately 1,600×g) at 4° C. for 5 minutes, and supernatant from this spin was combined with the supernatant from the first spin. […]
# as §1, with “Ill.). […]” for “Ill.).”
# Unbound ^125I-compound 24 was removed by aspiration. […] The resultant pellets were aspirated and the radioactivity (dpm) in each was determined by gamma counting.
# [3] = target: T3, His-tagged huANT3 (Homo sapiens, UniProt P12236); assay: 125I-compound 24 competition binding to recombinant His-tagged huANT3 immobilized on Ni beads; design: made in house; host or cells: baculovirus-infected Trichoplusia ni cells; mitochondria solubilized and captured on Ni-agarose beads (Qiagen); conditions: His-tagged huANT3 on Ni-agarose beads, 1 hour at 4° C.; FIG. 19
# T3 sequence (P12236 1-298): T2 sequence (P12236 1-298)
# Protocol: Competitive binding assays were also performed using recombinant His-tagged huANT3 (see Example 3) immobilized on Ni beads (FIG. 19) instead of mitochondria. To prepare the bead-immobilized huANT3, mitochondria from T. ni cells infected with a baculovirus expressing huANT3 (see Example 3) were solubilized with 0.5% O-glucopyranoside in the presence of 0.5 nM ^125I-compound 24 Ni-agarose beads (Qiagen, Hilden, Germany), and various concentrations of ATR or BKA as unlabeled competitors. After 1 hour at 4° C., the beads were washed and radioactivity that remained associated with the beads was counted.
# [4] = Binding of [32P]ATP to Ni-agarose bead material from control (uninfected) Sf9 cells; conditions: 2 hr
# Protocol: (§2) His-tagged huANT3 protein was purified from baculovirus-infected Sf9 solubilized cell lysates using Ni-agarose magnetic beads; Sf9 cells that had not been infected were used as negative controls. The beads were incubated with [^32P]ATP (1 or 100 μM) for 2 hr. The beads were washed and then counted to determine the amount of bound ATP. […] Binding saturation had essentially been achieved with 1 μM ATP.
# [5] = target: T4, Sf9/huANT3 mitochondria (Homo sapiens, UniProt P12236); assay: Homologous competition of [32P]ATP binding to Sf9/huANT3 mitochondria; conditions: 25 μg mitochondrial protein per assay; FIG. 7
# T4 construct: expressed in transfected cells; host or cells: Spodoptera frugiperda Sf9 cells infected with recombinant baculovirus; isolated mitochondria
# T4 sequence (P12236 1-298): T2 sequence (P12236 1-298)
# Protocol: To estimate maximal binding and the extent of overexpression of the huANT3, 25 μg of membrane protein was incubated with varying amounts of [^32P]ATP (1-500 μM) in binding buffer (120 mM KCl, 10 mM Tris, 1 mM EDTA, pH 7.4) for 2 hr at room temperature. The membranes with bound ATP were sedimented by centrifugation at 5000 g for 5 min, and washed once with binding buffer. Membrane pellets were then mixed with 5 ml scintillation cocktail and counted.
# Sf9 cells expressing huANT3 were grown in spinner flasks. The cells were harvested by centrifugation at 2,000 g for 5 min. The cell pellet was resuspended in MSB and subjected to 3 freeze-thaw cycles. Cell membranes and debris were removed by centrifugation at 600 g for 5 min; mitochondria were collected by centrifuging the supernatant at 20,000 g for 15 min. The mitochondrial pellets were suspended in MSB, and used for binding assays as described above. Homologous competition of [^32P]ATP binding was performed using 25 μg mitochondrial protein per assay.
# [6] = test system: sham transformed E. coli membranes; assay: Saturation binding of [32P]ATP to E. coli membranes, sham transformed (vector only) cells; conditions: 25 μg membrane protein, 2 hr room temperature
# Protocol: (§3) Following arabinose induction, transformed or sham transformed (vector only) E coli were collected by centrifugation at 2000 g for 10 min. The bacterial pellets were resuspended in MSB, to which lysozyme (100 μg/ml) was added. After 20 min at room temperature, the lysates were subjected to one freeze-thaw cycle followed by sonication as described above. The resultant membrane preparation was used for binding assays.
# (§4) […] The membranes with bound ATP were sedimented by centrifugation at 5000 g for 5 min, and washed once with binding buffer. Membrane pellets were then mixed with 5 ml scintillation cocktail and counted.
# [7] = target: T5, GST-huANT3 recombinantly produced in E. coli (membranes) (Homo sapiens, UniProt P12236); assay: Saturation binding of [32P]ATP to E. coli membranes, huANT3-producing cells; conditions: for cpm bound by: huANT3-Producing Cells: 25 μg membrane protein, 2 hr room temperature
# T5 construct: Gly-Ser-Pro-Gly-Ile-Leu-Met, where “Met” indicates the amino acid encoded by the translation initiation codon of huANT3; made in house; host or cells: E. coli (crude membrane preparation)
# T5 sequence (P12236 1-298): T2 sequence (P12236 1-298)
# Protocol: as §3, §4
# [8] = target: T3, His-tagged huANT3; assay: Binding of [32P]ATP to purified His-tagged huANT3 on Ni-agarose magnetic beads; design: made in house; host or cells: baculovirus-infected Sf9 cells; conditions: for cpm bound by: huANT3-Producing Cells: 2 hr
# Protocol: as §2
# [9] = target: T6, GST-huANT3 (Homo sapiens, UniProt P12236); assay: ATP binding to agarose-glutathione beads incubated with solubilized bacterial lysate
# T6 construct: Gly-Ser-Pro-Gly-Ile-Leu-Met, where “Met” indicates the amino acid encoded by the translation initiation codon of huANT3; made in house; host or cells: E. coli (solubilized lysate, captured on agarose-glutathione beads)
# T6 sequence (P12236 1-298): T2 sequence (P12236 1-298)
# Protocol: Agarose-glutathione beads were incubated with solubilized (using Dnase, Rnase and 0.1% Triton X-100, see Example 1, section D) bacterial lysate (see Example 2), and substituted for the E. coli membranes in binding assays. Best results (i.e., more specific binding) were seen when the beads were preincubated with bovine serum albumin (BSA, 0.1%) Specific ATP binding (1,070 cpm) was also observed in this experiment (compare to nonspecific binding of 279 cpm in the presence of 10 mM non-radiolabeled ATP).
structure (smiles),measurement,setting,value
"CC(C)CC(=O)OC1C(OC2CC(C(=O)O)C3CCC45CC(CCC4C3(C)C2)C(C)C5O)OC(CO)C(OS(=O)(=O)O)C1OS(=O)(=O)O (centres unmarked) [compound 5, Dihydroatractyloside]",IC50,"[1]; 0.5 nM 125I-compound 24, FIG. 18, read-out: IC50, competitive inhibition of 125I-compound 24 binding",~3.3 µM
"Nc1ncnc2c1ncn2[C@@H]1O[C@H](COP(=O)(O)OP(=O)(O)O)[C@@H](O)[C@H]1O [ADP, adenosine diphosphate]",competitive inhibition of 125I-compound 24 binding (in words),[1],low affinity
same,competitive inhibition of 125I-compound 24 binding (in words),[2],low affinity
"CO[C@H](C/C=C\C=C\CC/C=C/C[C@H](C)/C=C/C(=C\C(=O)O)CC(=O)O)/C(C)=C\C=C(/C)C(=O)O [BKA, bongkrekic acid]",competitive inhibition of 125I-compound 24 binding (in words),[3],effectively compete with compound 24
same,competitive inhibition of 125I-compound 24 binding (in words),[1],"effectively displaced labeled compound 24, albeit with a slightly lower affinity than unlabeled compound 24"
"Nc1ncnc2c1ncn2[C@@H]1O[C@H](COP(=O)(O)OP(=O)(O)OP(=O)(O)O)[C@@H](O)[C@H]1O [ATP, adenosine triphosphate]",cpm bound by: Control (Uninfected) Cells,[4]; [ATP] 1.0 uM,43 cpm
same,cpm bound by: Control (Uninfected) Cells,[4]; [ATP] 100 uM,30 cpm
same,Kd,[5],13 µM
same,cpm bound by: Sham Transformed Cells,[6]; [ATP] 0.1 uM,109 cpm
same,cpm bound by: Sham Transformed Cells,[6]; [ATP] 0.5 uM,95 cpm
same,cpm bound by: Sham Transformed Cells,[6]; [ATP] 1.0 uM,147 cpm
same,cpm bound by: Sham Transformed Cells,[6]; [ATP] 5.0 uM,123 cpm
same,cpm bound by: Sham Transformed Cells,[6]; [ATP] 10 uM,214 cpm
same,cpm bound by: Sham Transformed Cells,[6]; [ATP] 50 uM,549 cpm
same,cpm bound by: Sham Transformed Cells,[6]; [ATP] 100 uM,718 cpm
same,cpm bound by: Sham Transformed Cells,[6]; [ATP] 500 uM,"2,140 cpm"
same,cpm bound by: huANT3-Producing Cells,[7]; [ATP] 0.1 uM,191 cpm
same,cpm bound by: huANT3-Producing Cells,[7]; [ATP] 0.5 uM,49 cpm
same,cpm bound by: huANT3-Producing Cells,[7]; [ATP] 1.0 uM,325 cpm
same,cpm bound by: huANT3-Producing Cells,[7]; [ATP] 10 uM,263 cpm
same,cpm bound by: huANT3-Producing Cells,[7]; [ATP] 50 uM,"2,727 cpm"
same,cpm bound by: huANT3-Producing Cells,[7]; [ATP] 100 uM,"5,772 cpm"
same,cpm bound by: huANT3-Producing Cells,[7]; [ATP] 500 uM,"9,715 cpm"
same,Kd,"[7]; from saturation binding data of Table 2, read-out: affinity of the ATP binding",~6 µM
same,ATP concentration at which binding saturation had essentially been achieved,[8],1 µM
same,cpm bound by: huANT3-Producing Cells,[8]; [ATP] 1.0 uM,149 cpm
same,cpm bound by: huANT3-Producing Cells,[8]; [ATP] 100 uM,160 cpm
same,Specific ATP binding,[9]; beads preincubated with BSA 0.1%,"1,070 cpm"
same,nonspecific binding,[9]; in the presence of 10 mM non-radiolabeled ATP,279 cpm
